Assay results: US5328927A, “Hetercyclic compounds, processes for their preparation and pharmaceutical compositions containing them” (Merck Sharpe & Dohme, Ltd., priority 1992, dated 1994)
Where a name gives a salt, the structure may show the parent alone.

Target: human neurokinin-1-receptor (NK1R) (Homo sapiens, UniProt P25103)
Test: biochemical
Details: 125I-SP binding, cloned human NK1R expressed in COS or CHO, 1 hour at 4° C. or room temperature
Procedure: To express the cloned human neurokinin-1-receptor (NK1R) transiently in COS, the cDNA for the human NK1R was cloned into the expression vector pCDM9 which was derived from pCDM8 (INVITROGEN) by inserting the ampicillin resistance gene (nucleotide 1973 to 2964 from BLUESCRIPT SK+ (trademark, [sequence], La Jolla, Calif., USA)) into the Sac II site. Transfection of 20 ug of the plasmid DNA into 10 million COS cells was achieved by electroporation in 800 μl of transfection buffer (135 mM NaCl, 1.2 mM CaCl2, 1.2 mM MgCl2, 2.4 mM K2 HPO4, 0.6 mM KH2 PO4, 10 mM glucose, 10 mM N-2-hydroxyethyl-piperazine-N'-2-ethane sulphonic acid (HEPES) pH 7.4) at 260 V and 950 μF using the IBI GENEZAPPER (trademark IBI, New Haven, Conn., USA). The cells were incubated in 10% fetal calf serum, 2 mM glutamine, 100 U/ml penicillin-streptomycin, and 90% DMEM media (GIBCO, Grand Island, N.Y., USA) in 5% CO2 at 37° C. for three days before the binding assay.
The binding assay of human NK1R expressed in either COS or CHO cells is based on the use of ^125 I-substance P (^125 I-SP from DU PONT, Boston, Mass.) as a radioactively labeled ligand which competes with unlabeled substance P or any other ligand for binding to the human NK1R. […] In the binding assay, 200 μl of cells were added to a tube containing 20 μl of 1.5 to 2.5 nM of ^125 I-SP and 20 μl of unlabeled substance P or any other test compound. The tubes were incubated at 4° C. or at room temperature for 1 hour with gentle shaking. The bound radioactivity was separated from unbound radioactivity by GF/C filter (BRANDEL, Gaithersburg, Md.) which was pre-wetted with 0.1% polyethylenimine. The filter was washed with 3 ml of wash buffer (50 mM Tris pH 7.5, 5 mM MnCl2, 150 mM NaCl) three times and its radioactivity was determined by gamma counter.

Chain of human neurokinin-1-receptor (NK1R) (P25103 whole entry): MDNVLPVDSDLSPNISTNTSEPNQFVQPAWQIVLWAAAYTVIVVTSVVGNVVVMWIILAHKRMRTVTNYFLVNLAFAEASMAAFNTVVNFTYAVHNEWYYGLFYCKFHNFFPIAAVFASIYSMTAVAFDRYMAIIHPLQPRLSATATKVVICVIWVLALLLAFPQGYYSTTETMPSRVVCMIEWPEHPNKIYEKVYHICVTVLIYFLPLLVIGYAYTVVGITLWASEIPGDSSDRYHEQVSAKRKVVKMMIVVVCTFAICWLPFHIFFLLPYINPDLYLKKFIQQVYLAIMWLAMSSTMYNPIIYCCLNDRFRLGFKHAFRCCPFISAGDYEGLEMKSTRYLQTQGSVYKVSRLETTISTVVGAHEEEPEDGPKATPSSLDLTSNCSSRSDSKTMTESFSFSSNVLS

IC50 | IC50 (cell prints μM in nM column) | Structure (SMILES)
0.7 µM | – | CC(=O)NC(Cc1csc2ccccc12)C(O)C=Cc1cc(C(F)(F)F)cc(C(F)(F)F)c1 (single isomer, unassigned) [2 (Isomer A), 2-Acetamido-1-(3-benzo[b]thienyl)-5-(3,5-bistrifluoromethylphenyl)-4-penten-3-ol]
0.3 µM | – | CC(=O)NC(Cc1csc2ccccc12)C(O)C=Cc1cc(C(F)(F)F)cc(C(F)(F)F)c1 (single isomer, unassigned) [2 (Isomer B), 2-Acetamido-1-(3-benzo[b]thienyl)-5-(3,5-bistrifluoromethylphenyl)-4-penten-3-ol]
– | > 1 µM | COC(C=Cc1cc(C(F)(F)F)cc(C(F)(F)F)c1)C(Cc1csc2ccccc12)NC(C)=O (single isomer, unassigned) [3 (Isomer A), 2-Acetamido-1-(3-benzo[b]thienyl)-5-(3,5-bistrifluoromethylphenyl)-3-methoxy-4-pentene]
0.35 µM | – | COC(C=Cc1cc(C(F)(F)F)cc(C(F)(F)F)c1)C(Cc1csc2ccccc12)NC(C)=O (single isomer, unassigned) [3 (Isomer B), 2-Acetamido-1-(3-benzo[b]thienyl)-5-(3,5-bistrifluoromethylphenyl)-3-methoxy-4-pentene]
0.19 µM | – | CC(=O)NC(Cc1csc2ccccc12)C(O)CCc1cc(C(F)(F)F)cc(C(F)(F)F)c1 (single isomer, unassigned) [5 (Isomer A), 2-Acetamido-1-(3-benzo[b]thienyl)-5-(3,5-bistrifluoromethylphenyl)-3-pentanol]
0.5 µM | – | CC(=O)NC(Cc1csc2ccccc12)C(O)CCc1cc(C(F)(F)F)cc(C(F)(F)F)c1 (single isomer, unassigned) [5 (Isomer B), 2-Acetamido-1-(3-benzo[b]thienyl)-5-(3,5-bistrifluoromethylphenyl)-3-pentanol]
0.5 µM | – | COC(CCc1cc(C(F)(F)F)cc(C(F)(F)F)c1)C(Cc1csc2ccccc12)NC(C)=O (single isomer, unassigned) [6 (Isomer A), 2-Acetamido-1-(3-benzo[b]thienyl)-5-(3,5-bistrifluoromethylphenyl)-3-methoxypentane]
0.03 µM | – | COC(CCc1cc(C(F)(F)F)cc(C(F)(F)F)c1)C(Cc1csc2ccccc12)NC(C)=O (single isomer, unassigned) [6 (Isomer B), 2-Acetamido-1-(3-benzo[b]thienyl)-5-(3,5-bistrifluoromethylphenyl)-3-methoxypentane]
0.2 µM | – | CC(=O)NC(Cc1csc2ccccc12)C(CCc1cc(C(F)(F)F)cc(C(F)(F)F)c1)=NO (single isomer, unassigned) [14 (Isomer A), 2-Acetamido-1-(3-benzo[b]thienyl)-5-(3,5-bistrifluoromethylphenyl)-3-oximinopentane]
0.3 µM | – | CC(=O)NC(Cc1csc2ccccc12)C(CCc1cc(C(F)(F)F)cc(C(F)(F)F)c1)=NO (single isomer, unassigned) [14 (Isomer B), 2-Acetamido-1-(3-benzo[b]thienyl)-5-(3,5-bistrifluoromethylphenyl)-3-oximinopentane]
0.35 µM | – | CC(=O)NC(Cc1csc2ccccc12)C(=O)C=Cc1cc(C(F)(F)F)cc(C(F)(F)F)c1 (stereo not drawn) [Example 1, 2-Acetamido-1-(3-benzo[b]thienyl)-5-(3,5-bistrifluoromethylphenyl)-4-penten-3-one]
0.02 µM | – | CC(=O)NC(Cc1csc2ccccc12)C(=O)CCc1cc(C(F)(F)F)cc(C(F)(F)F)c1 (stereo not drawn) [Example 4, 2-Acetamido-1-(3-benzo[b]thienyl)-5-(3,5-bistrifluoromethylphenyl)-3-pentanone]
0.03 µM | – | CN(C)CC(=O)NC(Cc1csc2ccccc12)C(=O)CCc1cc(C(F)(F)F)cc(C(F)(F)F)c1 (stereo not drawn) [Example 9, 1-(3-Benzo[b]thienyl)-5-(3,5-bistrifluoromethylphenyl)-2-(N,N-dimethylglycinamido)-3-pentanone Hydrochloride]
0.04 µM | – | CC(C)(C)OC(=O)NC(Cc1c[nH]c2ccccc12)C(=O)CCc1cc(C(F)(F)F)cc(C(F)(F)F)c1 (stereo not drawn) [Example 10, 5-(3,5-Bistrifluoromethylphenyl)-2-t-butyloxycarbonylamino-1-(3-indolyl)-3-pentanone]
0.015 µM | – | NC(Cc1c[nH]c2ccccc12)C(=O)CCc1cc(C(F)(F)F)cc(C(F)(F)F)c1 (stereo not drawn) [Example 11, 2-Amino-5-(3,5-bistrifluoromethylphenyl)-1-(3-indolyl)-3-pentanone Hydrochloride]
0.014 µM | – | O=C(NC(Cc1c[nH]c2ccccc12)C(=O)CCc1cc(C(F)(F)F)cc(C(F)(F)F)c1)c1ccccc1 (stereo not drawn) [Example 13, 2-Benzamido-5-(3,5-bistrifluoromethylphenyl)-1-(3-indolyl)-3-pentanone]
0.04 µM | – | CC(=O)NC(Cc1ccc(Cl)c(Cl)c1)C(=O)CCc1cc(C(F)(F)F)cc(C(F)(F)F)c1 (stereo not drawn) [Example 15, 2-Acetamido-5-(3,5-bistrifluoromethylphenyl)-1-(3,4-dichlorophenyl)-3-pentanone]
0.0004 µM | – | CN(C)CCCC(=O)NC(Cc1c[nH]c2ccccc12)C(=O)CCc1cc(C(F)(F)F)cc(C(F)(F)F)c1 (stereo not drawn) [Example 17, 5-(3,5-Bistrifluoromethylphenyl)-2-(4-(N,N-dimethylamino)butyramido)-1-(3-indolyl)-3-pentanone Hydrochloride]
0.0006 µM | – | CN(C)CCCCC(=O)NC(Cc1c[nH]c2ccccc12)C(=O)CCc1cc(C(F)(F)F)cc(C(F)(F)F)c1 (stereo not drawn) [Example 18, 5-(3,5-Bistrifluoromethylphenyl)-2-(5-(N,N-dimethylamino)pentanamido)-1-(3-indolyl)-3-pentanone]
0.002 µM | – | O=C(NC(Cc1c[nH]c2ccccc12)C(=O)CCc1cc(C(F)(F)F)cc(C(F)(F)F)c1)C1CC1 (stereo not drawn) [Example 19, 5-(3,5-Bistrifluoromethylphenyl)-2-(cyclopropylcarboxamido)-1-(3-indolyl)-3-pentanone]
0.002 µM | – | CC(CC(=O)NC(Cc1c[nH]c2ccccc12)C(=O)CCc1cc(C(F)(F)F)cc(C(F)(F)F)c1)c1ccccc1 (stereo not drawn) [Example 20, 5-(3,5-Bistrifluoromethylphenyl)-2-(3-phenylbutyramido)-1-(3-indolyl)-3-pentanone]
